Results: patent publication US20210403485A1, “PYRAZOLOPYRIMIDINE DERIVATIVE AS SELECTIVE TRK INHIBITOR” (SHANDONG LUYE PHARMACEUTICAL CO., LTD., priority 2018, published 2021)
pIC50: −log10 of the molar value. Read-outs that look alike come from different tables or passages of the source.

Key:
[1] = Animal body weight and general observations, Ba/F3 ETV6-NTRK3-G623R tumor-bearing nude mice; conditions: 100 mg/kg bid
Procedure: (§1) The mice in groups were intragastrically administrated on the next day, and the animal body weight and the long and short diameters of the tumor were measured once every other day.

Ba/F3 SLC34A2-ROS1-WT = target: T1, Ba/F3 SLC34A2-ROS1-WT (Homo sapiens, UniProt P08922); assay: Inhibitory activity against cell proliferation (CellTiter-Glo, 72 hours); type: cell-based; conditions: read-out: Half maximal inhibitory concentration IC50 of cells, Ba/F3 SLC34A2-ROS1-WT
T1 construct: fused on or other part: N-terminal part of SLC34A2 as fusion partner (part of the key); O95436 (Sodium-dependent phosphate transport protein 2B)
In short: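 Log-phase Ba/F3 cells (trypan blue viability above 90%) were treated in triplicate with a 9-point, 3-fold compound series. ATP-dependent luminescence was read after CellTiter-Glo addition, and IC50 values came from nonlinear sigmoidal dose-response fits.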

[2] = Animal body weight and general observations, Ba/F3 ETV6-NTRK3 tumor-bearing nude mice; conditions: 100 mg/kg bid
Procedure: as §1

ALK = target: T2, ALK (Homo sapiens, UniProt Q9UM73); assay: Kinase inhibitory activity (33P-ATP, filtration-binding method, Reaction Biology Corp.); type: biochemical; conditions: read-out: Half maximal inhibitory concentration IC50 for kinases, ALK
T2 construct: purchased Reaction Biology Corp
In short: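 Radiometric kinase assay: enzyme-compound mixture preincubated 20 minutes at room temperature, then reaction started with ^33P-ATP and run 120 minutes at room temperature. Filtration-binding readout. Activity expressed relative to DMSO control; IC50 from fitted dose-response curves.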

[3] = Pharmacokinetic test of compounds in mice (plasma, LC/MS/MS); type: in vivo, male CD-1 mice; conditions: for AUC(0-t): read-out: Area under the curve AUC0-last
Procedure: Experimental purpose: male CD-1 mice aged 7-9 weeks were selected as test animals, and the drug concentrations of the compounds in plasma at different time points after single intravenous injection (IV) and intragastric administration (PO) of the compounds were measured by an LC/MS/MS method, so that the pharmacokinetic behavior of the compounds disclosed herein in mice was studied, and the pharmacokinetic characteristic of the compounds was evaluated.
Drug preparation: the compounds were all prepared into clear solution by taking 5% DMSO+10% solutol+85% water as vehicle, and were used for administration in IV and PO groups. The dose of each compound administered was: IV, 3 mg/kg; PO, 10 mg/kg.

BaF3 ETV6-NTRK3-G623R = target: T3, BaF3 ETV6-NTRK3-G623R (Homo sapiens, UniProt Q16288, G623R, cells depend on it); assay: Inhibitory activity against cell proliferation (CellTiter-Glo, 72 hours); type: cell-based; conditions: read-out: Half maximal inhibitory concentration IC50 of cells, BaF3 ETV6-NTRK3-G623R
T3 construct: fused on or other part: N-terminal part of ETV6 (TEL) as fusion partner (part of the key); P41212 (Transcription factor ETV6)
In short: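 Ba/F3 stable fusion lines were seeded at 5000 cells/well (viability >90% by trypan blue) and allowed to settle overnight at 37 °C, 5% CO2. Compounds were then added as a 9-point, 3-fold series from a 10-fold working solution with a top concentration of 10 μM, in triplicate. IC50 values came from nonlinear sigmoidal fits of luminescence.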

T3 sequence (Q16288 whole entry G623R, the tested form may be a part): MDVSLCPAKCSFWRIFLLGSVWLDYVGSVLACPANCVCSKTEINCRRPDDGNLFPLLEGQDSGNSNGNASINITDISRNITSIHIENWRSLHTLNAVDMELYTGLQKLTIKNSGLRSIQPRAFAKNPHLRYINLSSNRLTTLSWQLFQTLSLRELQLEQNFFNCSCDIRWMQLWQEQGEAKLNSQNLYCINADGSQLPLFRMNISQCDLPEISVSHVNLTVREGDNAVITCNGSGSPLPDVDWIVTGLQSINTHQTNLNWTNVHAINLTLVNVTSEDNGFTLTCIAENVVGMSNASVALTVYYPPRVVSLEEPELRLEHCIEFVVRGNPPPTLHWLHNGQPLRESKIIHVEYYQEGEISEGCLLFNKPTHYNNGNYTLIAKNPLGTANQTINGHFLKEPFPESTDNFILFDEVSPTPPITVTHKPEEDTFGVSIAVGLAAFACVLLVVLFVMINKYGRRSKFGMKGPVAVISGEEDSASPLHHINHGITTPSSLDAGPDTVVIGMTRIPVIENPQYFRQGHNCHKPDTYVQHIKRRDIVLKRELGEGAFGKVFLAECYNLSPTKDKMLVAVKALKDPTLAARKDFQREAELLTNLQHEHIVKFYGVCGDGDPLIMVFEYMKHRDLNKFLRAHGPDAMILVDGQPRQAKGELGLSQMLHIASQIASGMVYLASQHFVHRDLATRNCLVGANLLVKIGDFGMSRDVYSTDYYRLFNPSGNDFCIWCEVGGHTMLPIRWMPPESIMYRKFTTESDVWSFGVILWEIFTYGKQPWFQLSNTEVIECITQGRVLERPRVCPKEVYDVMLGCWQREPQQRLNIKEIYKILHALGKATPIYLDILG
T1 sequence (P08922 whole entry, stated change not applied, the tested form may be a part): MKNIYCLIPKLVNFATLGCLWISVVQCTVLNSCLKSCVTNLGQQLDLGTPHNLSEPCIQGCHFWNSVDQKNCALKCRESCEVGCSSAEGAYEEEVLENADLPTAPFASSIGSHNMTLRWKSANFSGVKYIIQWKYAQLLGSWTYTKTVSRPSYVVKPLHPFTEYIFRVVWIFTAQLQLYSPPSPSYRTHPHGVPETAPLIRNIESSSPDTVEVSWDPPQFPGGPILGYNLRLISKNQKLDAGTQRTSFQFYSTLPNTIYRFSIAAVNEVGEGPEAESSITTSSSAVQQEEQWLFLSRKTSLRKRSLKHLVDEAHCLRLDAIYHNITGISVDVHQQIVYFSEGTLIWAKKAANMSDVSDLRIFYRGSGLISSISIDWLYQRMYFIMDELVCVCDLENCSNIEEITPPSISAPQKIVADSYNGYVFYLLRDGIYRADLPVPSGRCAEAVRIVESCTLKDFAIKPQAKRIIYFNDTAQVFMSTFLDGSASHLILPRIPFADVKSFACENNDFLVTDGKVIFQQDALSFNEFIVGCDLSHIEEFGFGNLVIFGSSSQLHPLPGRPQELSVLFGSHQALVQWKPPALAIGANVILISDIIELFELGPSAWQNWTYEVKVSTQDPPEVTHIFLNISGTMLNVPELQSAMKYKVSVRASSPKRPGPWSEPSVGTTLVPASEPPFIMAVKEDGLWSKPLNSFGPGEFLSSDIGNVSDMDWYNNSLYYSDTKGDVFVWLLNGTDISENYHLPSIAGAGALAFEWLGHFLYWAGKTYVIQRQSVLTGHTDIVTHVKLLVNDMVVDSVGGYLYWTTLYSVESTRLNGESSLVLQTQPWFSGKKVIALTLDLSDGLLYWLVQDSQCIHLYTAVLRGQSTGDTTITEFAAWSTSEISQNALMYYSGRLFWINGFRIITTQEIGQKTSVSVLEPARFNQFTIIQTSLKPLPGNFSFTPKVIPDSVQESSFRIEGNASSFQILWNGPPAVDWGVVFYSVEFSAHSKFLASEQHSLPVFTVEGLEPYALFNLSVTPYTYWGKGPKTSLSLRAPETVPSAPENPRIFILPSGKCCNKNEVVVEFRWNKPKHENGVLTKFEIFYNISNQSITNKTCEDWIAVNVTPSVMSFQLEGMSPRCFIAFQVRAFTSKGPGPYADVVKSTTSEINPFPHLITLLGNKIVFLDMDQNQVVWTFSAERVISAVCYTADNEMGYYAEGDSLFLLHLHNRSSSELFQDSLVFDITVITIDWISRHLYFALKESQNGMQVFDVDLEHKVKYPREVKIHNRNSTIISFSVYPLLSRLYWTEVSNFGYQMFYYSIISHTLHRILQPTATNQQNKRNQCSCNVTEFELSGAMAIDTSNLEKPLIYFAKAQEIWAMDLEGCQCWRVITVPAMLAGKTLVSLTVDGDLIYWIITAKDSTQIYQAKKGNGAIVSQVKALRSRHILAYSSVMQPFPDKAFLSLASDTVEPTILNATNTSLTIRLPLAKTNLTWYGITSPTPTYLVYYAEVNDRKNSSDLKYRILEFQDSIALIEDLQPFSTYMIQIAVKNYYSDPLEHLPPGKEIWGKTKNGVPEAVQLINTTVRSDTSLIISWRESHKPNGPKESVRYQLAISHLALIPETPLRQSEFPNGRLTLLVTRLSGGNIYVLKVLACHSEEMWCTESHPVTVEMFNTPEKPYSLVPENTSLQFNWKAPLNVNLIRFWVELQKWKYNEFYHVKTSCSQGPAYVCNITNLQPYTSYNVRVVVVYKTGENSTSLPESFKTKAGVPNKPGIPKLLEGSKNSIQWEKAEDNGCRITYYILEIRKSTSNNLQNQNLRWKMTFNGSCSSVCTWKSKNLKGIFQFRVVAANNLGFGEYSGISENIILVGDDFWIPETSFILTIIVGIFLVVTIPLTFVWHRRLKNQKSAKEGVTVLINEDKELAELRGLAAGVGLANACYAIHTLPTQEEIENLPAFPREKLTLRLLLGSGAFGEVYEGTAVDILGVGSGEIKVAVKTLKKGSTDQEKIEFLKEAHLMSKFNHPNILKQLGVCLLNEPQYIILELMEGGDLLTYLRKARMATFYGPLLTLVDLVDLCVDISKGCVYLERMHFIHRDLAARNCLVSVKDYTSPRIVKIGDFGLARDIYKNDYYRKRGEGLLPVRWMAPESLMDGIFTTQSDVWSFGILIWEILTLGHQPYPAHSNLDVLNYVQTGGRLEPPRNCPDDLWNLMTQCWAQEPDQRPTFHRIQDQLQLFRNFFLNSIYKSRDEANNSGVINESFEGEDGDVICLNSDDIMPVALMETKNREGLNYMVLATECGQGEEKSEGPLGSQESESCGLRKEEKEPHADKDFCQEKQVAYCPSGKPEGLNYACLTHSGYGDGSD
T2 sequence (Q9UM73 19-1620): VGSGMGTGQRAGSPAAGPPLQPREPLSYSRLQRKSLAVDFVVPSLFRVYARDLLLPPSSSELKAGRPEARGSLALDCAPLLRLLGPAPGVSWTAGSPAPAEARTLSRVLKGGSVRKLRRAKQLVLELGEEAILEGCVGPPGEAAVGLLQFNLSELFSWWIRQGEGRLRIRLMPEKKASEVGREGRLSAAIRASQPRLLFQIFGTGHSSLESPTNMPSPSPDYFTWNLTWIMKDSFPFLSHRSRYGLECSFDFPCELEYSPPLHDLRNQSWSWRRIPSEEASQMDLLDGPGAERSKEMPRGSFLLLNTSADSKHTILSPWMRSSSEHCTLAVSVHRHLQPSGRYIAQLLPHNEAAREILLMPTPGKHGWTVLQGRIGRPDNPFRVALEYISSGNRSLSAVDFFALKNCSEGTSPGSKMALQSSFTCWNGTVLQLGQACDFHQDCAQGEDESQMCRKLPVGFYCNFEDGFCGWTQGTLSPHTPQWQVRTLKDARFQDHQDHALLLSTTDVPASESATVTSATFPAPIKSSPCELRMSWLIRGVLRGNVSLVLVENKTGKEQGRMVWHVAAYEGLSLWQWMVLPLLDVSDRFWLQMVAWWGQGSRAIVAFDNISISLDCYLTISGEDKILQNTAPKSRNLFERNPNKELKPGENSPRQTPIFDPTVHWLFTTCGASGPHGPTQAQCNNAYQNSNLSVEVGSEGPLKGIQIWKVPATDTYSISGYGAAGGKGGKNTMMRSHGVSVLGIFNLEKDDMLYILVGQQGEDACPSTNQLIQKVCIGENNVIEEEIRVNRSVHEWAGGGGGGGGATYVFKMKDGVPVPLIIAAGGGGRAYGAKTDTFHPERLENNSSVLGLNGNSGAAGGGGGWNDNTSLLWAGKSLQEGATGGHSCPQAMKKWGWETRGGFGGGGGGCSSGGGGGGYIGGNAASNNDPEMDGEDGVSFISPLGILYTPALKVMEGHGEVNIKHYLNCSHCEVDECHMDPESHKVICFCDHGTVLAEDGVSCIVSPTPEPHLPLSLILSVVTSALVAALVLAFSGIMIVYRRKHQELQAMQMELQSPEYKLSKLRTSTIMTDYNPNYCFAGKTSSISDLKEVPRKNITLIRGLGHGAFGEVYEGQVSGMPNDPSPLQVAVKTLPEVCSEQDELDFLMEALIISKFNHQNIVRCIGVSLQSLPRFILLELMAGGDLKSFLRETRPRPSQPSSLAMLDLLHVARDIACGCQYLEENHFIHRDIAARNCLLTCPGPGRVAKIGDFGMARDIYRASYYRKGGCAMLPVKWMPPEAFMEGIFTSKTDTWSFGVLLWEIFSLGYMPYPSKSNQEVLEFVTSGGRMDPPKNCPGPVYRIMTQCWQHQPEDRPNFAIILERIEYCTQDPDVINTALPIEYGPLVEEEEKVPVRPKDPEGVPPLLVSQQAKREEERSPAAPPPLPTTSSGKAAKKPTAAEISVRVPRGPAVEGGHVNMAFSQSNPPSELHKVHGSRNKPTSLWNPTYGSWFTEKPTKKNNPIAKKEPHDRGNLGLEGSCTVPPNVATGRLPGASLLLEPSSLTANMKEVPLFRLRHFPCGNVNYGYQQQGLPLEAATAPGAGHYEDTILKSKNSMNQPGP

C[C@@H]1CCc2ncc(F)cc2[C@H]2CCCN2c2ccn3ncc(c3n2)C(=O)N1 [LOXO-195, reference compound]
Rate of change in body weight (%) of day 11 to day 0 [1]: 2.1%
General observations ([1]; the 1# animal, possibly associated with the administration operation): developed thorax congestion at D8 and died at D10
Body weight ([1]; Day 0): 23.5 ± 1.2 g
Body weight ([1]; Day 3): 24.4 ± 1.1 g
Body weight ([1]; Day 5): 24.4 ± 0.9 g
Body weight ([1]; Day 7): 24.6 ± 0.9 g
Body weight ([1]; Day 9): 24.4 ± 1.2 g
Body weight ([1]; Day 11): 24.0 ± 1.7 g
GI50 (Ba/F3 SLC34A2-ROS1-WT): 36.7 nM
Rate of change in body weight (%) of day 11 to day 0 [2]: 4.9%
Body weight ([2]; Day 0): 22.7 ± 2.7 g
Body weight ([2]; Day 3): 24.4 ± 2.7 g
Body weight ([2]; Day 5): 24.9 ± 2.6 g
Body weight ([2]; Day 7): 25.1 ± 2.8 g
Body weight ([2]; Day 9): 25.4 ± 3.0 g
Body weight ([2]; Day 11): 25.2 ± 3.0 g
pIC50 (ALK): 6.56
Apparent clearance Cl ([3]; IV, 3 mg/kg): 11.8 mL/kg/min
Bioavailability F % ([3]; PO, 10 mg/kg): 74%
Vd ([3]; male, CD-1, mouse, plasma, IV, 3 mg/kg, read-out: Apparent volume of distribution Vd): 0.5 L/kg
AUC(0-t) ([3]; male, CD-1, mouse, plasma, IV, 3 mg/kg): 11.1 µM·h
half-life ([3]; male, CD-1, mouse, plasma, IV, 3 mg/kg, read-out: Half-life T1/2 (converted)): 71.4 min
AUC(0-t) ([3]; male, CD-1, mouse, plasma, PO, 10 mg/kg): 27.3 µM·h
Cmax ([3]; male, CD-1, mouse, plasma, PO, 10 mg/kg, read-out: Peak concentration Cmax): 12.7 µM
Tmax ([3]; male, CD-1, mouse, plasma, PO, 10 mg/kg, read-out: Time to peak Tmax): 22.8 min
GI50 (BaF3 ETV6-NTRK3-G623R): 2.7 nM
